Data set [1] in a line: Therapeutic index measured as ratio of EC50 for Davis/CC50 for HEL 299. The conditions noted are these: human; read-out: Therapeutic index.
The test system of data set [2] is Human betaherpesvirus 5. The data set is described as follows: Concentration of compound required to inhibit 50% of HCMV strain AD-169 induced cytopathic effect. In kind it is functional, organism-based. (In general: Cytopathic effects are the visible damage that an infection or toxin causes in cultured cells.)
Data set [3] concerns Human betaherpesvirus 5. The data set is described as follows: Concentration of compound required to inhibit 50% of HCMV strain Davis induced cytopathic effect. Format: functional, organism-based.
The test system of data set [4] is HEL 299. The data set is described as follows: Compound was tested for its cytotoxicity against human embryonic lung fibroblast cells (HEL 299) by MTT dye reduction assay. In kind it is functional. Background: Formazan colour is commonly taken as a measure of viable cells.
The nature of data set [5]: Therapeutic index measured as ratio of […]. The conditions noted are these: human; read-out: Therapeutic index.

Values after ≈ are worked out from the molar mass of the structure shown. Bounds are passed on as bounds.

A word on the EC50: it is the concentration that produces a half-maximal response. Lower therefore signals higher potency in that assay. By CC50 is commonly meant the concentration that lowers cell viability or growth by half. For the compound `Nc1nc2c(ncn2COC(CO)CO)c(=O)[nH]1` [GANCICLOVIR], the selectivity ratio in data set [1] is more than 500; in data set [5] it was more than 200. For the same compound, the EC50 was determined as 1.9 µg/mL (≈ 7.44 µM) in data set [2] and 0.8 µg/mL (≈ 3.13 µM) in data set [3]. This compound also gave a CC50 in data set [4] of more than 400 µg/mL.

`CCOP(=O)(O)COCOn1cnc2c(O)nc(N)nc21`: the selectivity ratio in data set [1] was more than 700; in data set [5] it was more than 200. Moreover, the EC50 in data set [2] stood at 1.8 µg/mL (≈ 5.64 µM); in data set [3], 0.6 µg/mL (≈ 1.88 µM). In addition, the CC50 in data set [4] is more than 400 µg/mL.

For the origin of these results see ChEMBL document CHEMBL1127976, “Synthesis and anti-HCMV activity of 9-[[(ethoxyhydroxyphosphinyl)methoxy]methoxy]guanine, an isostere of PMEG monoethyl ester” (Bioorg Med Chem Lett, 1994).
